From ChEMBL document CHEMBL1697692, “Developing structure-activity relationships for the prediction of hepatotoxicity” (Chem Res Toxicol, 2010)

system: Hepatotoxicity; assay: Literature-mined public compounds from Greene et al multi-species hepatotoxicity modelling dataset

| SMILES | Hepatotoxicity |
| --- | --- |
| [H]/N=C(/N)N[C@H]1[C@H](O)[C@@H](O)[C@H](O[C@@H]2O[C@@H](C)[C@](O)(C=O)[C@H]2O[C@@H]2O[C@@H](CO)[C@H](O)[C@@H](O)[C@@H]2NC)[C@@H](N/C(N)=N\[H])[C@@H]1O [STREPTOMYCIN] | NE: No evidence of hepatotoxicity in any species |
| CC(COc1ccccc1)N(CCCl)Cc1ccccc1.Cl (centres undefined) [PHENOXYBENZAMINE HYDROCHLORIDE] | NE: No evidence of hepatotoxicity in any species |
| Cc1cn([C@H]2C[C@H](N=[N+]=[N-])[C@@H](CO)O2)c(=O)[nH]c1=O [ZIDOVUDINE] | HH: Evidence of human hepatotoxicity |
| CCOc1ccc2ccccc2c1C(=O)N[C@@H]1C(=O)N2[C@@H]1SC(C)(C)[C@@H]2C(=O)[O-].O.[Na+] [NAFCILLIN SODIUM] | WE: Weak evidence (<10 case reports) of human hepatotoxicity |
| CC1=C(C(=O)O)N2C(=O)[C@@H](NC(=O)[C@H](N)c3ccc(O)cc3)[C@H]2SC1 [CEFADROXIL] | HH: Evidence of human hepatotoxicity |
| [N-]=[N+]=CC(=O)OC[C@H](N)C(=O)O [AZASERINE] | AH: Evidence for animal hepatotoxicity but not tested in humans |
| CC1=C(C(=O)O)N2C(=O)[C@@H](NC(=O)[C@H](N)C3=CCC=CC3)[C@H]2SC1 [CEPHRADINE] | NE: No evidence of hepatotoxicity in any species |
| CC1(C)S[C@@H]2[C@H](NC(=O)[C@H](NC(=O)N3CCN(S(C)(=O)=O)C3=O)c3ccccc3)C(=O)N2[C@H]1C(=O)[O-].[Na+] [MEZLOCILLIN SODIUM] | HH: Evidence of human hepatotoxicity |
| CC(C)C(=O)Nc1ccc([N+](=O)[O-])c(C(F)(F)F)c1 [FLUTAMIDE] | HH: Evidence of human hepatotoxicity |
| CC(=O)N1CCN(c2ccc(OCC3COC(Cn4ccnc4)(c4ccc(Cl)cc4Cl)O3)cc2)CC1 (centres undefined) [KETOCONAZOLE] | HH: Evidence of human hepatotoxicity |
| CC(C)NCC(O)c1cc(O)cc(O)c1.CC(C)NCC(O)c1cc(O)cc(O)c1.O=S(=O)(O)O (centres undefined) [METAPROTERENOL SULFATE] | HH: Evidence of human hepatotoxicity |
| Oc1ccccc1Br | AH: Evidence for animal hepatotoxicity but not tested in humans |
| CN(C)C=O [DIMETHYLFORMAMIDE] | AH: Evidence for animal hepatotoxicity but not tested in humans |
| C#CC1(O)CC[C@H]2[C@@H]3CCC4=CC(=O)CC[C@@H]4[C@H]3CC[C@@]21CC (some centres undefined) [NORGESTREL] | HH: Evidence of human hepatotoxicity |
| NCCBr [BROMOETHANAMINE] | AH: Evidence for animal hepatotoxicity but not tested in humans |
| O=C1CN(/N=C/c2ccc(-c3ccc([N+](=O)[O-])cc3)o2)C(=O)[N-]1.[Na+] [DANTROLENE SODIUM] | HH: Evidence of human hepatotoxicity |
| C[C@H](CCC(=O)O)[C@H]1CC[C@H]2[C@@H]3CC[C@@H]4C[C@H](O)CC[C@]4(C)[C@H]3CC[C@]12C [LITHOCHOLIC ACID] | AH: Evidence for animal hepatotoxicity but not tested in humans |
| CC(=O)[C@H]1CC[C@H]2[C@@H]3CCC4=CC(=O)CC[C@]4(C)[C@H]3CC[C@]12C [PROGESTERONE] | HH: Evidence of human hepatotoxicity |
| CC(C)(O/N=C(\C(=O)N[C@@H]1C(=O)N2C(C(=O)[O-])=C(C[n+]3ccccc3)CS[C@H]12)c1csc(N)n1)C(=O)O [CEFTAZIDIME] | WE: Weak evidence (<10 case reports) of human hepatotoxicity |
| CCC(=O)O[C@H]1[C@H](O[C@@H]2[C@@H](C)[C@H](O[C@H]3C[C@@](C)(OC)[C@@H](O)[C@H](C)O3)[C@@H](C)C(=O)O[C@H](CC)[C@@](C)(O)[C@H](O)[C@@H](C)C(=O)[C@H](C)C[C@@]2(C)O)O[C@H](C)C[C@@H]1N(C)C.CCCCCCCCCCCCOS(=O)(=O)O [ERYTHROMYCIN ESTOLATE] | HH: Evidence of human hepatotoxicity |
| CC(C)(Oc1ccc(CCNC(=O)c2ccc(Cl)cc2)cc1)C(=O)O [BEZAFIBRATE] | NE: No evidence of hepatotoxicity in any species |
| CCN(CC)CCNc1ccc(CO)c2sc3ccccc3c(=O)c12 [HYCANTHONE] | HH: Evidence of human hepatotoxicity |
| COc1ccccc1Oc1c(NS(=O)(=O)c2ccc(C(C)(C)C)cc2)nc(-c2ncccn2)nc1OCCO [BOSENTAN] | HH: Evidence of human hepatotoxicity |
| CC1CN(c2cc3c(cc2F)c(=O)c(C(=O)O)cn3-c2ccc(F)cc2F)CCN1 (centres undefined) [TEMAFLOXACIN] | HH: Evidence of human hepatotoxicity |
| CCCCc1ncc(/C=C(\Cc2cccs2)C(=O)O)n1Cc1ccc(C(=O)O)cc1 [EPROSARTAN] | WE: Weak evidence (<10 case reports) of human hepatotoxicity |

| SMILES | Hepatotoxicity |
| --- | --- |
| CNC(=C[N+](=O)[O-])NCCSCc1ccc(CN(C)C)o1 [RANITIDINE] | WE: Weak evidence (<10 case reports) of human hepatotoxicity |
| CCC1(c2ccccc2)C(=O)NC(=O)N(C)C1=O (centres undefined) [MEPHOBARBITAL] | HH: Evidence of human hepatotoxicity |
| CC1=C(/C=C/C(C)=C/C=C/C(C)=C/C(=O)O)C(C)(C)CCC1 [TRETINOIN] | HH: Evidence of human hepatotoxicity |
| CCCC(C)(COC(N)=O)COC(N)=O [MEPROBAMATE] | HH: Evidence of human hepatotoxicity |
| CN(CCOc1ccc(CC2SC(=O)NC2=O)cc1)c1ccccn1 (centres undefined) [ROSIGLITAZONE] | WE: Weak evidence (<10 case reports) of human hepatotoxicity |
| COc1cc(NS(C)(=O)=O)ccc1Nc1c2ccccc2nc2ccccc12.Cl [AMSACRINE HYDROCHLORIDE] | HH: Evidence of human hepatotoxicity |
| NC1CCN(c2c(F)cc3c(=O)c(C(=O)O)cn(C4CC4)c3c2Cl)C1 (centres undefined) [CLINAFLOXACIN] | WE: Weak evidence (<10 case reports) of human hepatotoxicity |
| O=c1[nH]c(=O)n([C@H]2C[C@H](O)[C@@H](CO)O2)cc1I [IDOXURIDINE] | HH: Evidence of human hepatotoxicity |
| CN(CCCCCCCCCCN(C)C(=O)Oc1cccc([N+](C)(C)C)c1)C(=O)Oc1cccc([N+](C)(C)C)c1.[Br-].[Br-] [DEMECARIUM BROMIDE] | HH: Evidence of human hepatotoxicity |
| O=S(=O)(O)O.Oc1cccc2cccnc12.Oc1cccc2cccnc12 [OXYQUINOLINE SULFATE] | HH: Evidence of human hepatotoxicity |
| CC1(COc2ccc(CC3SC(=O)NC3=O)cc2)CCCCC1 (centres undefined) [CIGLITAZONE] | HH: Evidence of human hepatotoxicity |
| Cc1onc(-c2ccccc2Cl)c1C(=O)N[C@@H]1C(=O)N2[C@@H]1SC(C)(C)[C@@H]2C(=O)[O-].O.[Na+] [CLOXACILLIN SODIUM] | HH: Evidence of human hepatotoxicity |
| COCCCC/C(=N\OCCN)c1ccc(C(F)(F)F)cc1 [FLUVOXAMINE] | HH: Evidence of human hepatotoxicity |
| OC[C@@H](O)[C@@H](O)[C@H](O)[C@@H](O)CO [SORBITOL] | NE: No evidence of hepatotoxicity in any species |
| OCC(S)CS (centres undefined) [DIMERCAPROL] | HH: Evidence of human hepatotoxicity |
| CC1=CC(=O)c2ccccc2C1=O [MENADIONE] | AH: Evidence for animal hepatotoxicity but not tested in humans |
| C[C@H](CCC(=O)NCCS(=O)(=O)O)[C@H]1CC[C@H]2[C@@H]3[C@@H](O)C[C@@H]4C[C@H](O)CC[C@]4(C)[C@H]3CC[C@]12C [TAURURSODIOL] | HH: Evidence of human hepatotoxicity |
| Clc1ccccc1C(c1ccccc1)(c1ccccc1)n1ccnc1 [CLOTRIMAZOLE] | WE: Weak evidence (<10 case reports) of human hepatotoxicity |
| CC(C(=O)[O-])c1cccc(Oc2ccccc2)c1.[Na+] (centres undefined) [FENOPROFEN SODIUM] | HH: Evidence of human hepatotoxicity |
| Nc1ccc(S(N)(=O)=O)cc1 [SULFANILAMIDE] | HH: Evidence of human hepatotoxicity |
| ClCCCl [1,2-DICHLOROETHANE] | AH: Evidence for animal hepatotoxicity but not tested in humans |
| Oc1c(Cl)cc(Cl)cc1Sc1cc(Cl)cc(Cl)c1O [BITHIONOL] | HH: Evidence of human hepatotoxicity |
| Fc1ccc([C@@H]2CCNC[C@H]2COc2ccc3c(c2)OCO3)cc1 [PAROXETINE] | WE: Weak evidence (<10 case reports) of human hepatotoxicity |
| N#CC(C#N)=NNc1ccc(OC(F)(F)F)cc1 | AH: Evidence for animal hepatotoxicity but not tested in humans |
